The source of these data is patent US20070275943A1, “Method and Composition for Treatment or Prophylaxis of Amyloidosis Disorders” (Acrux DDS Pty Ltd., priority 2003, published 2007).

The nature of data set [1]: Diffusion across excised human epidermis, flow-through diffusion cells, finite dose. The settings on record: test spray (5% w/v 1,10-phenanthroline + 5% w/v octyl salicylate in 95% ethanol) vs control without enhancer, 24 h, 5 μL/cm^2, p<0.01.
Experimental: The diffusion experiments were performed using excised human epidermis as the model membrane. These experiments were performed over 24 h with stainless steel, flow-through diffusion cells based on those previously described, (Cooper, E. R. J. Pharm. Sci. 1984, 73, 1153-1156.) except that the cell was modified to increase the diffusional area to 1.0 cm^2. The formulations were applied using a finite dose technique (Franz, T. J. Curr. Probl. Dermatol. 1978, 7, 58-68.) to mimic clinical dosing conditions at an applied dose volume of 5 μL/cm^2. A piece of stainless steel wire mesh was placed directly below the skin in the receptor chamber of the diffusion cell to maintain a turbulent flow of receptor solution below the skin. The diffusion cells were maintained at a flow rate of approximately 1.0 ml/cm^2/h by a microcassette peristaltic pump (Watson Marlow 505S, UK). The cells were kept at 32±0.5° C. by a heater bar and the samples are collected into appropriately sized plastic vials on an automated fraction collector (Isco Retriever II, Lincoln, Nebr.) at specified intervals. […]
Samples were analysed for 1,10-phenanthroline directly by RP-HPLC using the following conditions; Column—Waters Symmetry C18 column (3.9×150 mm) with a 5 μm support size; Mobile phase—20% Acetonitrile buffered with 0.01 M KH2PO4, pH=2.80; Flow rate—0.9 mL/min; Absorbance—235 nm; and Injection volume—20 μL.
The conditions of data set [2]: molar ratio 1:1 (zinc: Aβ); read-out: KD of high affinity zinc binding; cited from earlier work.

`c1cnc2c(c1)ccc1cccnc12` [1,10-phenanthroline]: the “increase in the transdermal delivery of 1,10-phenanthroline across the skin” value in data set [1] came to 1.3 fold. Usually Kd stands for the free concentration of one partner at which half of the binding sites on the other are occupied at equilibrium, for simple one-to-one binding. In the case of “Aβ: polypeptide, major component of the amyloid deposits in Alzheimer's disease”, the Kd in data set [2] was 107 nM.
